# Legend:
# [1] = biological target: T1, 5-hydroxytryptamine receptor 2A (Homo sapiens, UniProt P28223); test: Agonist activity at human 5HT2A receptor stably expressed in Flp-In-T-REx-293 cells assessed as increase in Gq-mediated calcium flux by Fluo-4 direct dye based FLIPR Tetra assay; assay type: functional, cell-based
# [2] = biological target: T1, 5-hydroxytryptamine receptor 2A; test: Agonist activity at human 5HT2A receptor stably expressed in Flp-In-T-REx-293 cells assessed as maximal Gq-mediated calcium flux by Fluo-4 direct dye based FLIPR Tetra assay relative to control; assay type: functional, cell-based
# [3] = biological target: T2, 5-hydroxytryptamine receptor 2C (Homo sapiens, UniProt P28335); test: Agonist activity at human 5HT2C receptor stably expressed in Flp-In-T-REx-293 cells assessed as increase in Gq-mediated calcium flux by Fluo-4 direct dye based FLIPR Tetra assay; assay type: functional, cell-based
# T2 sequence (P28335 whole entry): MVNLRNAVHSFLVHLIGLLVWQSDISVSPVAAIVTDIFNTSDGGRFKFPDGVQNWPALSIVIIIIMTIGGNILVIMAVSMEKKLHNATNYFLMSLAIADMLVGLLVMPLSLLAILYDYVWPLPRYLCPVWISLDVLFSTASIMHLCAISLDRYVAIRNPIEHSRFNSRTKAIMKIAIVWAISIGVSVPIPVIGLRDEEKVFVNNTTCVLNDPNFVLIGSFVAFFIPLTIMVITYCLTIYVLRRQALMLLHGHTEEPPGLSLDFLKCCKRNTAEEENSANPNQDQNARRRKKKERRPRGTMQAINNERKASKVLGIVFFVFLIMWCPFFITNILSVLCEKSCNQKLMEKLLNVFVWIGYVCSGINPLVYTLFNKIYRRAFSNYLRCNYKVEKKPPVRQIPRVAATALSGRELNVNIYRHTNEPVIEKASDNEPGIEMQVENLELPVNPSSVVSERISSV
# [4] = biological target: T3, 5-hydroxytryptamine receptor 2C (Homo sapiens) (UniProt P28335); test: Agonist activity at human 5HT2C receptor stably expressed in Flp-In-T-REx-293 cells assessed as maximal Gq-mediated calcium flux by Fluo-4 direct dye based FLIPR Tetra assay relative to control; assay type: functional, cell-based
# T3 sequence (whole entry): T2 sequence (P28335 whole entry)
# [5] = biological target: T4, 5-hydroxytryptamine receptor 2B (Homo sapiens, UniProt P41595); test: Agonist activity at human 5HT2B receptor stably expressed in Flp-In-T-REx-293 cells assessed as increase in Gq-mediated calcium flux by Fluo-4 direct dye based FLIPR Tetra assay; assay type: functional, cell-based; details: read-out: EC50
# T4 sequence (P41595 whole entry): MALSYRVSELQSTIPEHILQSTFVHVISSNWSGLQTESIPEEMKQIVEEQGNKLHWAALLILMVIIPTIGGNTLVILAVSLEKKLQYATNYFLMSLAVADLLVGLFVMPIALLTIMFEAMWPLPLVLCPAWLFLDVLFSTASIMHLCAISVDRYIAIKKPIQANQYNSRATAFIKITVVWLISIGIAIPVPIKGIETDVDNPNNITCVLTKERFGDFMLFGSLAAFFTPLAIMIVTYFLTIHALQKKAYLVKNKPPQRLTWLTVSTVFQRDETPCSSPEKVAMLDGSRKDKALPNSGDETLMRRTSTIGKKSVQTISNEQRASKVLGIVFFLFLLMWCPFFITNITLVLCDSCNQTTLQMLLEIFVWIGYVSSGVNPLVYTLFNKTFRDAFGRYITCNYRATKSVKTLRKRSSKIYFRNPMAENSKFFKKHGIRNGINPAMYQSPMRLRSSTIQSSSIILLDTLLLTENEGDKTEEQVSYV
# [6] = biological target: T4, 5-hydroxytryptamine receptor 2B; test: Agonist activity at human 5HT2B receptor stably expressed in Flp-In-T-REx-293 cells assessed as maximal Gq-mediated calcium flux by Fluo-4 direct dye based FLIPR Tetra assay relative to control; assay type: functional, cell-based
# [7] = Drug metabolism in BALB/c mouse liver microsome S9 fraction assessed as [M+16] metabolite formation prewarmed for 5 mins followed by NADPH addition measured over 1 hrs by LCMS analysis; assay type: ADME; details: microsomes, 1.083 h, time 65 min
# T1 sequence (P28223 whole entry): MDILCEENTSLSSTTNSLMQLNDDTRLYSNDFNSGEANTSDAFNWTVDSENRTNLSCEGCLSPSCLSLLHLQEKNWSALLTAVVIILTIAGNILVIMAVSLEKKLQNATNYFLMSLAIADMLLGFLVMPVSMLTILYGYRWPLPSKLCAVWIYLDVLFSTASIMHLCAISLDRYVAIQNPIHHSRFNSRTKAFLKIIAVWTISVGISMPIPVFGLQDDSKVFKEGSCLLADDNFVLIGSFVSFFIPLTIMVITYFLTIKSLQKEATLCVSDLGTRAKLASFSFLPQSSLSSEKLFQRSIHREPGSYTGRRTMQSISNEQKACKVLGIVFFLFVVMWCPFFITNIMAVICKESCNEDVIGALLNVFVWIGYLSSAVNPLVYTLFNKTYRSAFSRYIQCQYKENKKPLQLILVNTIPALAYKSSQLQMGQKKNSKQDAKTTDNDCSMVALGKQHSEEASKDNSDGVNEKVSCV
Molecule,EC50 [1] [nM],Emax ([2]; filed as agonist) [%],EC50 ([3]; read-out: EC50) [nM],Emax ([4]; filed as agonist) [%],EC50 [5] [nM],Emax ([6]; filed as agonist) [%],Emax [2] [%],Emax [6] [%],Emax [4] [%],Drug metabolism [7],EC50 ([3]; read-out: pEC50 (converted)) [nM]
Oc1ccc(Br)cc1C1NCCc2c1[nH]c1ccc(Cl)cc21 (configuration not stated),812,79.7,1320,95.2,457,111,,,,,
Oc1ccc(Cl)cc1C1NCCc2c1[nH]c1ccc(Cl)cc21 (configuration not stated),> 10000,,3560,58.9,2000,111,,,,,
COc1ccc(OC)c(C2NCCc3c2[nH]c2ccc(F)cc32)c1 (configuration not stated),> 10000,,1600,55.3,588,52.1,,,,,
Cc1ccc(O)c(C2NCCc3c2[nH]c2ccc(Cl)cc32)c1 (configuration not stated),,,,,4270,106,,,,,
COc1ccc(OC)c(C2NCCc3c2[nH]c2ccc(Cl)cc32)c1 (configuration not stated),1820,,2690,42.4,416,,14.4,32,,,
COc1ccc2cc(C3NCCc4c3[nH]c3ccc(Cl)cc43)ccc2c1 (configuration not stated),1320,66.8,1060,93.7,,,,,,,
Cc1ccc(O)c(C2NCCc3c2[nH]c2ccc(F)cc32)c1 (configuration not stated),1230,,446,99.2,316,115,36.8,,,,
Fc1ccc2[nH]c3c(c2c1)CCNC3C(c1ccccc1)c1ccccc1 (configuration not stated),1910,92.5,954,103,,,,,,,
Oc1ccc2[nH]c3c(c2c1)CCNC3c1cc(Cl)ccc1O (configuration not stated),1570,47.6,754,97.1,,,,,,,
Oc1cccc(C2NCCc3c2[nH]c2ccc(Cl)cc32)c1 (configuration not stated),3300,49.1,688,67.4,,,,,,,
Clc1ccc2[nH]c3c(c2c1)CCNC3c1cccs1 (configuration not stated),724,,602,48.6,,,23.7,,,,
Oc1ccc(Br)cc1C1NCCc2c1[nH]c1ccc(F)cc21 (configuration not stated),1110,80.8,376,101,338,111,,,,,
Clc1ccc2[nH]c3c(c2c1)CCNC3c1cncnc1 (configuration not stated),898,,420,,,,32.1,,38.7,,
RAUWOLFIA SERPENTINA,,,,,,,,,,Metabolite_Detected,
Oc1ccc2[nH]c3c(c2c1)CCNC3c1cncnc1 (configuration not stated),800,89.3,,83.3,,,,,,,2950

# Results, then the molecule that gave them:
EC50 [1] [nM],Emax ([2]; filed as agonist) [%],EC50 ([3]; read-out: EC50) [nM],Emax ([4]; filed as agonist) [%],EC50 [5] [nM],Emax ([6]; filed as agonist) [%],Emax [2] [%],Emax [6] [%],Emax [4] [%],Drug metabolism [7],EC50 ([3]; read-out: pEC50 (converted)) [nM],Molecule
537,94.5,794,107,204,106,,,,,,Oc1cc(Br)ccc1C1NCCc2c1[nH]c1ccc(Cl)cc21 (configuration not stated)
229,73.2,209,107,128,105,,,,,,Oc1cc(Cl)ccc1C1NCCc2c1[nH]c1ccc(F)cc21 (configuration not stated)
363,47.8,159,104,537,107,,,,,,Cc1ccc(C2NCCc3c2[nH]c2ccc(F)cc32)c(C)c1 (configuration not stated)
52,98.5,47,102,25,109,,,,,,Oc1cc(Cl)ccc1C1NCCc2c1[nH]c1ccc(Cl)cc21 (configuration not stated)
336,70.1,176,94,106,95.9,,,,,,Oc1c(Cl)cccc1C1NCCc2c1[nH]c1ccc(Cl)cc21 (configuration not stated)
273,65.3,78,99.2,88,96.2,,,,,,Oc1c(Cl)cccc1C1NCCc2c1[nH]c1ccc(F)cc21 (configuration not stated)
81,96,123,99.3,34,102,,,,,,COc1ccc(C2NCCc3c2[nH]c2ccc(Cl)cc32)cc1OC (configuration not stated)
147,98,95,111,59,112,,,,,,Oc1cc(Br)ccc1C1NCCc2c1[nH]c1ccc(F)cc21 (configuration not stated)
167,45.6,159,100,98,91.3,,,,,,COc1ccc(C2NCCc3c2[nH]c2ccc(F)cc32)c(OC)c1 (configuration not stated)
254,83.2,152,103,102,89.8,,,,,,COc1ccc(C2NCCc3c2[nH]c2ccc(F)cc32)cc1OC (configuration not stated)
346,44.7,294,97,,,,,,,,Oc1ccc2[nH]c3c(c2c1)CCNC3c1cccs1 (configuration not stated)
151,88,39,105,,,,,,,,Clc1ccc2[nH]c3c(c2c1)CCNC3c1cc2ccccc2s1 (configuration not stated)
88.5,86.5,22.4,102,,,,,,,,Fc1ccc2[nH]c3c(c2c1)CCNC3c1ccccc1 (configuration not stated)
120,100,76.4,100,,,,,,,,Oc1ccc2[nH]c3c(c2c1)CCNC3c1ccccc1C(F)(F)F (configuration not stated)
302,48.9,1010,81,,,,,,,,Fc1ccc2[nH]c3c(c2c1)CCNC3c1ccccc1F (configuration not stated)
562,69.8,407,99.2,977,89.4,,,,,,Cc1ccc(C2NCCc3c2[nH]c2ccc(Cl)cc32)c(C)c1 (configuration not stated)
354,,891,42.3,,,34.1,,,,,Fc1ccc2[nH]c3c(c2c1)CCNC3C1CCOCC1 (configuration not stated)
15.1,96.5,24.5,102,,,,,,,,Clc1ccc2[nH]c3c(c2c1)CCNC3c1ccc2ccccc2c1 (configuration not stated)
72,95.2,42,120,25,102,,,,,,Oc1ccc(O)c(C2NCCc3c2[nH]c2ccc(F)cc32)c1 (configuration not stated)
0.5,103,0.8,114,,,,,,,,COc1ccc(C2NCCc3c2[nH]c2ccc(O)cc32)c(O)c1 (configuration not stated)
177,100,44,117,,,,,,,,Clc1ccc2[nH]c3c(c2c1)CCNC3c1ccc(Cl)s1 (configuration not stated)
64,101,15.8,98.5,,,,,,,,Clc1ccc2[nH]c3c(c2c1)CCNC3CCc1ccccc1 (configuration not stated)

# Reference: ChEMBL document CHEMBL5131517 (ACS Med Chem Lett, 2022)
